Entries after “also recorded” stand apart in the source; their conditions may differ.
Experiments:
[1] = test system: acetylated alpha tubulin, HeLa; experiment: Immunoblot of acetylated alpha tubulin in HeLa cells; assay type: cell-based, human; conditions: Forskolin (10 μM), 45 min, immunoblot normalized with GAPDH
Protocol: (§1) Human embryonic kidney cells, HEK293T, human cervical carcinoma cells, HeLa, human breast cancer cells, MDA-MB 231, human lung adenocarcinoma cellsA549, chronic myeloid leukemia cells, K562, and human colon cancer cells, HCT11, were obtained from National Centre for Cell Sciences (NCCS), Pune, India. Cell line authentication by STR analysis was performed for 10 genetic loci for all the cell lines by Life code, Genomic technologies Pvt. Ltd., and tested for mycoplasma negative by performing PCR (mycoplasma specific genes) using EZdetect PCR kit for mycoplasma detection (CCK009). All the cells were cultured in high glucose DMEM medium containing 10% foetal bovine serum and 1% Penicillin/streptomycin (Himedia). Cells were seeded in 60 mm dishes and upon attaining 80–90% confluency, treatment was given with PCI-34051(Cayman Chemicals) (10 μM/20 μM) and tubastatin (5 μM) for 24 h or both in combination (PCI-34051 and Tubastatin) and Forskolin (Sigma) (10 μM) for 45 min independently along with untreated control as described earlier.
(§2) Total, cytoplasmic and nuclear fractions of HeLa or HEK 293 T cells treated with or without PCI-34051 (20 μM), [12] tubastatin (5 μM) and/or forskolin (10 μM) were prepared as described previously. Total protein samples of HEK 293 T, HeLa, MDAMB 231, K562, A549 and HCT11 cells / immunoprecipitated HDAC8 and HDAC6 samples from both HeLa and HEK 293 T lysates / HDAC8 siRNA transfected HEK 293 T and HeLa lysates were also prepared. The proteins were separated on 10 or 12% SDS-PAGE, transferred on to nitrocellulose membrane and probed with primary antibodies of HDAC8, Beta actin, Alpha tubulin, anti-acetylated alpha tubulin, HDAC6 and GAPDH. The bands were visualized using chemiluminiscence after probing with HRP-conjugated secondary antibody.
(§3) Source for siRNA oligonucleotides were considered from with sequence, HDAC8 Sense: […] and Anti-sense: […]. The oligonucleotides were converted into siRNA by following standard protocol as described earlier. HeLa and HEK 293 T cells were transfected with HDAC8 siRNA (10–15 μg/100 mm dish) using lipofectamine 2000 (Invitrogen), and considering untransfected as control. Cells were harvested after 72 h of post-transfection and processed for total RNA and protein isolation.

HDAC8 [2] = experiment: Immunofluorescence / confocal localization of HDAC8 in HeLa and HEK 293 T cells; assay type: cell-based, human; conditions: Forskolin (10 μM), 45 min
Protocol: as §1
HeLa and HEK 293 T cells (Control, Forskolin, PCI-34051 (20 μM) treated) were fixed with 4% formaldehyde in PBS for 20 min at RT followed by permeabilization with 0.25% TritonX-100 in PBS. […]

[3] = test system: acetylated alpha tubulin, HEK 293 T; experiment: Immunoblot of acetylated alpha tubulin in HEK 293 T cells; assay type: cell-based, human; conditions: HEK 293 T, Forskolin (10 μM), 45 min, immunoblot normalized with GAPDH
Protocol: as §1, §2, §3

HDAC8 [4] = conditions: by phosphorylation (PKA); cited from earlier work
From the text: The cytoplasmic localization of HDAC8 was further confirmed by immunoblot analysis using total, cytoplasmic and nuclear protein fractions of HEK 293 T and HeLa (Fig. 1d). […] With forskolin treatment, there was significant inc ... || In silico and spectroscopy based results have confirmed the interaction of HDAC8 with alpha tubulin & acetylated alpha tubulin peptide. To further validate the functional interaction we carried out IP and co-IP experiments with HDAC8 and acetylated alpha tubulin (ac-tubulin) antibodies. […] Densitometry results for the fold expression ...

HDAC8 [5] = experiment: HDAC8 FLUOR DE LYS fluorometric enzyme activity assay on immunoprecipitated HDAC8 fractions; assay type: biochemical, human; conditions: Forskolin (10 μM); for HDAC8 enzyme activity, nuclear fraction: immunoprecipitated nuclear fraction (5 μg), vs untreated
Protocol: HDAC8 enzyme activity assay was performed using HDAC8 FLUOR DE LYS fluorometric assay kit (Cat# BML-AK518–0001) for Control, PCI-34051(10 μM), Forskolin (10 μM), Tubastatin (5 μM) - treated and immunoprecipitated samples of either total, cytoplasmic and nuclear fractions of HeLa and HEK 293 T cells using anti-HDAC8 antibody and anti-HDAC6 (2 μg antibody for ~ 500 μg) according to the manufacturer’s protocol.

HEK 293 T cells = experiment: Cell morphology analysis, HEK 293 T; assay type: cell-based, human; conditions: 20 μM, 24 & 48 h, vs control
Protocol: (§4) HeLa and HEK 293 T cells are cultured in 6 well plates till attaining 70% confluency. Cells are starved for 12 h without serum and treated with PCI-34051 (20 μM) and Paclitaxel (20 μM) along with untreated control for 24 & 48 h. Examined difference in the morphology was captured by Olympus CKX41, ProgRes CT3 phase contrast microscope at 10X focussed lens.

tubulin polymerization = conditions: cited from earlier work
From the text: Tubulins are one of the major cytoskeletal proteins and consists of alpha, beta and gamma tubulin proteins in the family. Acetylated alpha tubulin is known to stabilize microtubules and effect intracellular transport, cell migration and primary determinant for cell morphology. HDAC8 inhibition impedes the migration property in HeLa in turn affecting the morphology.

HeLa cells [6] = experiment: Cell migration (wound) assay in HeLa cells; assay type: cell-based, human; conditions: PCI-34051 (10 μM) or Paclitaxel (10 μM), 24 and 48 h
Protocol: HeLa cells are grown in 6 well plates in duplicates till it attains 90% confluency and starved with serum free media for overnight. Using a sterile 200 μl tip wound is created by drawing straight lines at three different points in each well. Detached cells are aspirated and washed three times with 1XPBS. Cells are treated with PCI-34051 (10 μM & 20 μM) and Paclitaxel (10 μM & 20 μM) dissolved in 2% FBS respectively along with control (untreated). Migrated cells into the wound were examined by capturing images using Olympus CKX41, ProgRes CT3 phase contrast microscope after 24 and 48 h.

HeLa cells [7] = experiment: Cell morphology analysis, HeLa; assay type: cell-based, human; conditions: HeLa, 20 μM, 24 & 48 h, vs control
Protocol: as §4

| cytoplasmic HDAC8 activity (HDAC8 [5]; HeLa and HEK 293 T, cytoplasmic fraction (5 μg)) | nuclear HDAC8 enzyme activity (discussion statement) (HDAC8 [5]; HeLa and HEK 293 T, nuclear fraction (5 μg)) | SMILES | levels of acetylated alpha tubulin [1] | levels of acetylated alpha tubulin ([1]; listed as forskolin) | localization of HDAC8 (HDAC8 [2]) | levels of acetylated alpha tubulin [3] | levels of acetylated alpha tubulin ([3]; listed as forskolin) | effect on HDAC8 (HDAC8 [4]) | HDAC8 enzyme activity, nuclear fraction (HDAC8 [5]; HEK 293 T) | HDAC8 enzyme activity, nuclear fraction (HDAC8 [5]; HeLa) | cell morphology (aggregation / clump formation) (HEK 293 T cells) | consequence of inhibition of tubulin polymerization (tubulin polymerization) | migration efficiency (rank order) (HeLa cells [6]) | cell morphology (cell size) (HeLa cells [7]) |
| --- | --- | --- | --- | --- | --- | --- | --- | --- | --- | --- | --- | --- | --- | --- |
| decreased | increased | C=C[C@@]1(C)CC(=O)[C@]2(O)[C@@]3(C)[C@@H](O)CCC(C)(C)[C@@H]3[C@H](O)[C@H](OC(C)=O)[C@@]2(C)O1 [Forskolin] | ac-alpha tubulin levels increase | increased significantly; also recorded: significant increase of acetylated tubulin expression | no difference in localization of HDAC8 | ac-alpha tubulin levels increase | increased significantly | known to inactivate HDAC8 by phosphorylation | significant increase in the nuclear fraction | significant increase in the nuclear fraction | – | – | – | – |
| – | – | CC(=O)O[C@H]1C(=O)[C@@]2(C)[C@H]([C@H](OC(=O)c3ccccc3)[C@]3(O)C[C@H](OC(=O)[C@H](O)[C@@H](NC(=O)c4ccccc4)c4ccccc4)C(C)=C1C3(C)C)[C@]1(OC(C)=O)CO[C@@H]1C[C@@H]2O [Paclitaxel] | – | – | – | – | – | – | – | – | clump formation; also recorded: cell aggregation | cell-cycle arrest and cell death | Control> > Paclitaxel>PCI-34051 | reduced (shrinking) cell size; also recorded: decreased cell size (shrinking) |

From PMC5930436, “Overexpressed HDAC8 in cervical cancer cells shows functional redundancy of tubulin deacetylation with HDAC6” (Cell Communication and Signaling : CCS, 2018)
